Measured values as given in patent US7038033B2, “Nematode neuromuscular junction GABA receptors subunits” (University of Utah Research Foundation, priority 1998, dated 2006).

Legend:
[1] = molecular target: UNC-49B homomeric GABA receptor (Caenorhabditis elegans, UniProt G5EEY3); experiment: Two-electrode voltage clamp of Xenopus oocytes injected with UNC-49B.1 mRNA; format: cell-based, C. elegans; conditions: for response of oocytes to agonist: applied at 1 mM or 10 mM
Method: (§1) Oocytes were removed from Xenopus laevis frogs anesthetized by immersion in 0.2% tricaine for 15-30 minutes. Harvested ovarian lobes were defolliculated by incubation in 2 mg/ml of collagenase (Type IA, Sigma) for 2 hours at room temperature on an orbital shaker in calcium-free ND-96 solution containing in mM: 96 NaCl, 2 KCl, 1 MgCl2, and 5 HEPES (pH=7.6). The oocytes were rinsed 5-6 times with a Barth's solution that contained (in mM): 88 NaCl, 1 KCl, 0.41 CaCl2, 0.33 Ca(NO3)2, 1 MgSO4, 2.4 NaHCO3 and 10 HEPES (pH=7.4), and selected stage V-VI oocytes were stored at 18C in Barth's solution supplemented with 1 mM Na-Pyruvate, 0.01 mg/ml gentamycin and an antibiotic-antimycotic solution containing 100 units/ml of penicillin, 100 μg/ml streptomycin and 0.25 μg/ml of Amphotericin B (Gibco BRL).
(§2) Oocytes were injected with cRNA (prepared using the mMessage mMachine kit, Ambion) into the cytoplasm 24 hours later. Glass capillary tubes (World Precision Instruments) were pulled to a fine tip on a vertical micropipette puller (David Kopf) and broken back to an outside diameter of 21 μm. RNA stocks were diluted to a final concentration of 0.75 μg/μl and injected into the oocytes (32 nl) with a microinjector (World Precision Instruments).
(§3) Electrophysiological recordings were performed 3-7 days following injection and were carried out at room temperature in a control Ringers solution containing in mM: 115 NaCl, 2.5 KCl, 1.0 BaCL2, and 10 HEPES (pH=7.4). Two electrode voltage clamp recordings were obtained with a Geneclamp amplifier (Axon Instruments) using […] KCl-filled microelectrodes (1-5 M). Recordings were carried out at a holding potential of −60 mV. Concentration-effect data were fit to the logistic equation: I=Imax/{1+(EC50/[agonist])^nH}, where Imax is the maximal current, [agonist] is the concentration, EC50 is the concentration of agonist resulting in half maximal activation and nH is an empirical parameter describing the steepness of fit and having the same meaning as the Hill coefficient. NFIT (Island Products) was used for non-linear curve fitting. Data are presented as the mean S.E.M.; n is the number of oocytes tested. All combinations of subunits were tested in parallel in at least two independent experiments (at least 4 oocytes for each combination of mRNAs per experiment). The effect of incorporating the UNC-49C subunit was consistent from one experiment to another. Single channel recordings were performed as described in except that 1 mM GABA was applied continuously. Single channel conductance was determined by fitting Gaussian curves to all points histograms.

UNC-49C = experiment: Two-electrode voltage clamp of Xenopus oocytes injected with UNC-49C RNA; format: cell-based, C. elegans; conditions: any concentration
Method: as §1, §2, §3

[2] = molecular target: UNC-49B/C heteromeric GABA receptor (Caenorhabditis elegans, UniProt G5EE10+G5EEY3); experiment: Two-electrode voltage clamp of Xenopus oocytes injected with equal amounts of UNC-49B and UNC-49C RNA; format: cell-based; conditions: Xenopus oocytes co-expressing UNC-49B and UNC-49C
Method: as §1
Oocytes were injected with cRNA (prepared using the mMessage mMachine kit, Ambion) into the cytoplasm 24 hours later. […]
Electrophysiological recordings were performed 3-7 days following injection and were carried out at room temperature in a control Ringers solution containing in mM: 115 NaCl, 2.5 KCl, 1.0 BaCL2, and 10 HEPES (pH=7.4). […] Single channel conductance was determined by fitting Gaussian curves to all points histograms.

Chain of UNC-49B homomeric GABA receptor (G5EEY3 entry or part of it): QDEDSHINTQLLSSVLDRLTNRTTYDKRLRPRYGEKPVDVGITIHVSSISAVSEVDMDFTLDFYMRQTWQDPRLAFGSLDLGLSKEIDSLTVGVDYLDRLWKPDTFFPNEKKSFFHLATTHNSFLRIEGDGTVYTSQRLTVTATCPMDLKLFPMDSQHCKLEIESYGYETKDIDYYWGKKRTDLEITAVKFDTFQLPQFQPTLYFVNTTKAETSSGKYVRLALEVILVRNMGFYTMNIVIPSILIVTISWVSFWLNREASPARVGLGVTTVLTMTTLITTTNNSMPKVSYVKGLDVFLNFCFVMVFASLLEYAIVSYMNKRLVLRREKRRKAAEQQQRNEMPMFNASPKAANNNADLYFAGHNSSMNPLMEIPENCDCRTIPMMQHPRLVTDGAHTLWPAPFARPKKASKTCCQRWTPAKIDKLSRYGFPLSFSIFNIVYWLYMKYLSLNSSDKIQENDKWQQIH
Chain of UNC-49B/C heteromeric GABA receptor (G5EE10 entry or part of it): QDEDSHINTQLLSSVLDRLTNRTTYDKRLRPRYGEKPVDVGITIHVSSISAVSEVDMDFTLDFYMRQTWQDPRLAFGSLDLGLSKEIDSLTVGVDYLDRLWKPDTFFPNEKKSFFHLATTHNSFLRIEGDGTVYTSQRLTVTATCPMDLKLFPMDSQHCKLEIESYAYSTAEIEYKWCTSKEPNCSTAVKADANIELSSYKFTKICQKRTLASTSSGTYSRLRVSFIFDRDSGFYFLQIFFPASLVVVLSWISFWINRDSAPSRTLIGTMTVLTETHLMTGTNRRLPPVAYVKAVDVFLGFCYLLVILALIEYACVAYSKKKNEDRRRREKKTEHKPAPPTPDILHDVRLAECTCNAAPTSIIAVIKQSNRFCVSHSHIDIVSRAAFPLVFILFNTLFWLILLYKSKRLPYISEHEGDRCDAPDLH
Chain of UNC-49B/C heteromeric GABA receptor (G5EEY3 entry or part of it): as the sequence (G5EEY3 entry or part of it) above

SMILES	current when exposed to agonist ([1]; UNC-49B.1-injected Xenopus oocytes)	EC50 ([1]; UNC-49B.1-injected Xenopus oocytes, holding potential -60 mV, representative experiment, read-out: GABA concentration required to produce half-maximal channel activity (EC50)) [µM]	Hill coefficient ([1]; UNC-49B.1-injected Xenopus oocytes, representative experiment)	response of oocytes to agonist (UNC-49C)	EC50 [2] [µM]	Hill coefficient [2]	response of oocytes to agonist ([1]; UNC-49B-expressing oocytes)	currents produced by agonist ([1]; UNC-49B-expressing oocytes, 10 mM, n=4)
NCCCC(=O)O [GABA, gamma-aminobutyric acid]	robust, desensitizing, dose-dependent current	43.7	2.94	failed to respond	108	1.33		
N[C@@H](CCC(=O)O)C(=O)O [glutamate]				equally unresponsive			did not respond	
NCC(=O)O [glycine]				equally unresponsive			did not respond	
NCCC(=O)O [β-alanine]				equally unresponsive				only slightly greater than baseline noise
